Data published in ChEMBL document CHEMBL1144188, “Obovatol inhibits colorectal cancer growth by inhibiting tumor cell proliferation and inducing apoptosis” (Bioorg Med Chem, 2008).
The source made the active and inactive calls. The rule behind the calls is not given here.

Columns and labels:
SW-620 [1] = assay: Antitumor activity in human SW620 cells xenografted nude mouse assessed as decrease in tumor volume at 5 mg/kg/day, po after 27 days; type: functional
SW-620 [2] = assay: Antitumor activity in human SW620 cells xenografted nude mouse assessed as decrease in tumor volume at 5 mg/kg/day, po after 23 days; type: functional
Mus musculus [3] = assay: Toxicity in SW480 cells xenografted nude mouse assessed as change in body weight 5 mg/kg/day, ip after 21 days; type: organism-based; parameters: route intraperitoneal; details: in vivo, 504 h
SW-620 [4] = assay: Antitumor activity in human SW620 cells xenografted nude mouse assessed as decrease in tumor volume at 5 mg/kg/day, po after 10 days; type: functional
SW-620 [5] = assay: Antitumor activity in human SW620 cells xenografted nude mouse assessed as decrease in tumor volume at 5 mg/kg/day, po after 16 days; type: functional
SW-620 [6] = assay: Antitumor activity in human SW620 cells xenografted nude mouse assessed as decrease in tumor volume at 5 mg/kg/day, po after 5 days; type: functional
MDA-MB-231 [7] = assay: Induction of apoptosis in human MDA-MB-231 cells assessed as ROS production after 24 hrs; type: functional, cell-based
PC-3 = assay: Antiproliferative activity against human PC-3 cells after 48 hrs by MTS assay; type: functional, cell-based
MCF7 = assay: Antiproliferative activity against human MCF7 cells after 48 hrs by MTS assay; type: functional, cell-based
HT-29 = assay: Antiproliferative activity against human HT-29 cells after 48 hrs by MTS assay; type: functional, cell-based
SW-620 [8] = assay: Antitumor activity against human SW620 cells at 50 uM after 72 hrs; type: functional; details: SW-620, 72 h
MDA-MB-231 [9] = assay: Induction of apoptosis in human MDA-MB-231 cells assessed as morphological changes in presence of N-acetyl-cysteine after 24 hrs; type: functional, cell-based
SW-620 [10] = assay: Effect on apoptosis-mediated morphological changes in human SW620 cells assessed as round cell formation; type: functional, cell-based
SW-620 [11] = assay: Cell cycle arrest in human SW620 cells assessed as accumulation at S phase at 50 uM after 72 hrs by FACS analysis; type: functional
SW-620 [12] = assay: Antitumor activity against human SW620 cells at 30 uM after 24 hrs; type: functional; details: SW-620, 24 h
K562 = assay: Antiproliferative activity against human K-562 cells after 48 hrs by MTS assay; type: functional, cell-based
HCT-116 = assay: Antiproliferative activity against human HCT 116 cells after 48 hrs by MTS assay; type: functional, cell-based
SW-620 [13] = assay: Antitumor activity against human SW620 cells at 50 uM after 96 hrs; type: functional; details: SW-620, 96 h
SW-620 [14] = assay: Induction of apoptosis in human SW620 cells assessed as chromosomal DNA fragmentation at […] after 48 hrs by FACS analysis; type: functional, cell-based
DU-145 = assay: Antiproliferative activity against human DU145 cells after 48 hrs by MTS assay; type: functional, cell-based
MDA-MB-231 [15] = assay: Antiproliferative activity against human MDA-MB-231 cells after 48 hrs by MTS assay; type: functional, cell-based
SW-620 [16] = assay: Antitumor activity against human SW620 cells at 50 uM after 24 hrs; type: functional; details: SW-620, 24 h
SW-620 [17] = assay: Antitumor activity in human SW620 cells xenografted nude mouse assessed as decrease in tumor weight at 5 mg/kg/day, ip after 21 days; type: functional; parameters: scale not given: the % may be the effect or the level left; details: route intraperitoneal
SW-620 [18] = assay: Cell cycle arrest in human SW620 cells assessed as accumulation at G2/M phase at 50 uM after 72 hrs by FACS analysis; type: functional
SW-620 [19] = assay: Antitumor activity against human SW620 cells at 100 uM after 72 hrs; type: functional; details: SW-620, 72 h
SW-620 [20] = assay: Antitumor activity against human SW620 cells at 100 uM after 24 hrs; type: functional; details: SW-620, 24 h
SW-620 [21] = assay: Antitumor activity against human SW620 cells at 100 uM after 48 hrs; type: functional; details: SW-620, 48 h
DLD-1 = assay: Antiproliferative activity against human DLD1 cells after 48 hrs by MTS assay; type: functional, cell-based
SW-620 [22] = assay: Antitumor activity against human SW620 cells at 100 uM after 96 hrs; type: functional; details: SW-620, 96 h
SW-620 [23] = assay: Cell cycle arrest in human SW620 cells assessed as accumulation at G1 phase at 50 uM after 72 hrs by FACS analysis; type: functional
SW-620 [24] = assay: Antitumor activity against human SW620 cells at 30 uM after 72 hrs; type: functional; details: SW-620, 72 h
SW-620 [25] = assay: Cell cycle arrest in human SW620 cells assessed as accumulation at subG1 phase at 50 uM after 72 hrs by FACS analysis; type: functional
SW-620 [26] = assay: Induction of apoptosis in human SW620 cells assessed as necrosis relative to control; type: functional
SW-620 [27] = assay: Induction of apoptosis in human SW620 cells assessed as apoptotic cell form at 50 uM relative to control; type: functional
SW-620 [28] = assay: Antitumor activity against human SW620 cells at 30 uM after 48 hrs; type: functional; details: SW-620, 48 h
SW-620 [29] = assay: Antitumor activity in human SW620 cells xenografted nude mouse assessed as decrease in tumor volume at 5 mg/kg/day, ip after 21 days; type: functional; details: route intraperitoneal
SW-620 [30] = assay: Antitumor activity against human SW620 cells at 30 uM after 96 hrs; type: functional; details: SW-620, 96 h
SW-620 [31] = assay: Antitumor activity against human SW620 cells at 50 uM after 48 hrs; type: functional; details: SW-620, 48 h
SW-620 [32] = assay: Antitumor activity in human SW620 cells xenografted nude mouse assessed as decrease in tumor weight at 2 mg/kg, ip after 21 days; type: functional; parameters: scale not given: the % may be the effect or the level left; details: route intraperitoneal
SW-620 [33] = assay: Antitumor activity in human SW620 cells xenografted nude mouse assessed as decrease in tumor volume at 2 mg/kg, ip after 21 days; type: functional; parameters: scale not given: the % may be the effect or the level left; details: route intraperitoneal
Mus musculus [34] = assay: Toxicity in SW480 cells xenografted nude mouse assessed as change in body weight 2 mg/kg/day, ip after 21 days; type: organism-based; parameters: route intraperitoneal; details: in vivo, 504 h

Q: With `C=CCc1ccc(O)c(-c2ccc(O)c(CC=C)c2)c1` [HONOKIOL] as the compound, how does the Activity (SW-620 [1]) read?
A: The Activity was 900 mm3.

Q: What about the Activity (SW-620 [2]) of the same compound?
A: Its Activity is 600 mm3.

Q: And the Activity (Mus musculus [3])?
A: The Activity was “Non-toxic”.

Q: What about the Activity (SW-620 [4]) of the same compound?
A: Its Activity is 150 mm3.

Q: And the Activity (SW-620 [5])?
A: The Activity was 270 mm3.

Q: And the Activity (SW-620 [6])?
A: The Activity was 100 mm3.

Q: With `C=CCc1ccc(Oc2cc(CC=C)cc(O)c2O)cc1` [OBOVATOR] as the compound, how does the Activity (SW-620 [1]) read?
A: Its Activity is 750 mm3.

Q: What about the Activity (MDA-MB-231 [7]) of the same compound?
A: The Activity was “inactive”.

Q: What about the Activity (PC-3) of the same compound?
A: The Activity was “Active”.

Q: What about the Activity (MCF7) of the same compound?
A: The Activity was “Active”.

Q: What about the Activity (HT-29) of the same compound?
A: The Activity was “Active”.

Q: What about the inhibition at 50 µM (SW-620 [8]) of the same compound?
A: Its inhibition at 50 µM is 64%.

Q: What about the Activity (MDA-MB-231 [9]) of the same compound?
A: Its Activity is “inactive”.

Q: And the Activity (SW-620 [2])?
A: The Activity was 400 mm3.

Q: And the Activity (SW-620 [10])?
A: Its Activity is “Active”.

Q: And the Activity (SW-620 [11])?
A: The Activity was 30.4%.

Q: What about the inhibition at 30 µM (SW-620 [12]) of the same compound?
A: The inhibition at 30 µM was 7%.

Q: And the Activity (K562)?
A: The Activity was “Active”.

Q: What about the Activity (HCT-116) of the same compound?
A: The Activity was “Active”.

Q: And the Activity (Mus musculus [3])?
A: The Activity was “Non-toxic”.

Q: And the inhibition at 50 µM (SW-620 [13])?
A: Its inhibition at 50 µM is 85%.

Q: And the Activity (SW-620 [14])?
A: Its Activity is “Active”.

Q: And the Activity (DU-145)?
A: Its Activity is “Active”.

Q: What about the Activity (SW-620 [4]) of the same compound?
A: Its Activity is 130 mm3.

Q: And the Activity (MDA-MB-231 [15])?
A: Its Activity is “Active”.

Q: And the inhibition at 50 µM (SW-620 [16])?
A: Its inhibition at 50 µM is 21%.

Q: What about the Activity (SW-620 [17]) of the same compound?
A: The Activity was 44.6%.

Q: What about the Activity (SW-620 [18]) of the same compound?
A: Its Activity is 16%.

Q: What about the inhibition at 100 µM (SW-620 [19]) of the same compound?
A: The inhibition at 100 µM was 97%.

Q: And the Activity (SW-620 [5])?
A: The Activity was 150 mm3.

Q: And the inhibition at 100 µM (SW-620 [20])?
A: Its inhibition at 100 µM is 36%.

Q: And the inhibition at 100 µM (SW-620 [21])?
A: The inhibition at 100 µM was 92%.

Q: And the Activity (DLD-1)?
A: Its Activity is “Active”.

Q: And the inhibition at 100 µM (SW-620 [22])?
A: Its inhibition at 100 µM is 98%.

Q: What about the Activity (SW-620 [23]) of the same compound?
A: The Activity was 53.6%.

Q: And the inhibition at 30 µM (SW-620 [24])?
A: The inhibition at 30 µM was 33%.

Q: What about the Activity (SW-620 [25]) of the same compound?
A: Its Activity is 23.36%.

Q: What about the Activity (SW-620 [26]) of the same compound?
A: The Activity was under 12%.

Q: And the Activity (SW-620 [6])?
A: Its Activity is 100 mm3.

Q: And the Activity (SW-620 [27])?
A: The Activity was under 50%.

Q: What about the inhibition at 30 µM (SW-620 [28]) of the same compound?
A: Its inhibition at 30 µM is 26%.

Q: What about the Activity (SW-620 [29]) of the same compound?
A: Its Activity is 277 mm3.

Q: What about the inhibition at 30 µM (SW-620 [30]) of the same compound?
A: Its inhibition at 30 µM is 18%.

Q: What about the inhibition at 50 µM (SW-620 [31]) of the same compound?
A: Its inhibition at 50 µM is 57%.

Q: What does the source list for `COc1cccc2c1C(=O)c1c(O)c3c(c(O)c1C2=O)C[C@@](O)(C(=O)CO)C[C@@H]3O[C@H]1C[C@H](N)[C@H](O)[C@H](C)O1` [DOXORUBICIN]?
A: Activity (SW-620 [32]): 53.7%; Activity (SW-620 [33]): 58%; Activity (Mus musculus [34]): 13.1%
